Reference: patent publication US20020052295A1, “Diacyl derivatives of propylene diamine having herbicidal activity” (priority 1999, published 2002)

Columns and labels:
ABUTH = assay: Pre-emergence herbicidal activity on ABUTH (velvetleaf); format: in vivo, Abutilon theophrasti; details: greenhouse
In short: (§1)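 Seeds sown on sterilized fertilized topsoil in pots, covered to level, then compound in 50:50 acetone/water sprayed on soil surface. Greenhouse 30/21 °C day/night, 0.64 cm overhead irrigation, then mist/subirrigation. Percent inhibition vs untreated plants scored ~14 days after treatment; GR80 derived, highest rate typically 1000 g/ha.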

SOLNI = assay: Pre-emergence herbicidal activity on SOLNI (black nightshade); format: in vivo, Solanum nigrum; details: greenhouse
In short: as §1

AMARE = assay: Pre-emergence herbicidal activity on AMARE (redroot pigweed); format: in vivo, Amaranthus retroflexus; details: greenhouse
In short: as §1

DATST = assay: Pre-emergence herbicidal activity on DATST (jimsonweed); format: in vivo, Datura stramonium; details: greenhouse
In short: as §1

CHEAL = assay: Pre-emergence herbicidal activity on CHEAL (common lambsquarters); format: in vivo, Chenopodium album; details: greenhouse
In short: as §1

CONAR = assay: Pre-emergence herbicidal activity on CONAR (field bindweed); format: in vivo, Convolvulus arvensis; details: greenhouse
In short: as §1

POROL = assay: Pre-emergence herbicidal activity on POROL (common purslane); format: in vivo, Portulaca oleracea; details: greenhouse
In short: as §1

CIRAR = assay: Pre-emergence herbicidal activity on CIRAR (canada thistle, seedling); format: in vivo, Cirsium arvense; details: greenhouse
In short: as §1

ECHCG = assay: Pre-emergence herbicidal activity on ECHCG (barnyardgrass); format: in vivo, Echinochloa crus-galli; details: lowest tested rate giving 80% or greater inhibition, approx. 14 days after planting and treating, greenhouse
In short: as §1

PANMI = assay: Pre-emergence herbicidal activity on PANMI (wild proso millet); format: in vivo, Panicum miliaceum; details: greenhouse
In short: as §1

SORHA = assay: Pre-emergence herbicidal activity on SORHA (johnsongrass, seedling); format: in vivo, Sorghum halepense; details: greenhouse
In short: as §1

SETFA = assay: Pre-emergence herbicidal activity on SETFA (giant foxtail); format: in vivo, Setaria faberi; details: greenhouse
In short: as §1

PANDI = assay: Pre-emergence herbicidal activity on PANDI (fall panicum); format: in vivo, Panicum dichotomiflorum; details: greenhouse
In short: as §1

SORVU = assay: Pre-emergence herbicidal activity on SORVU (shattercane); format: in vivo, Sorghum vulgare; details: lowest tested rate giving 80% or greater inhibition, approx. 14 days after planting and treating, greenhouse
In short: as §1

BRAPP = assay: Pre-emergence herbicidal activity on BRAPP (broadleaf signalgrass); format: in vivo, Brachiaria platyphylla; details: greenhouse
In short: as §1

DIGSA = assay: Pre-emergence herbicidal activity on DIGSA (large crabgrass); format: in vivo, Digitaria sanguinalis; details: greenhouse
In short: as §1

[1] = tested on: monocotyledonous and dicotyledonous annual plant species; assay: Greenhouse pre-emergence test, all species of the test taken together; format: in vivo
Description: All such uses, and the biological activity enabling such uses, are embraced by the term “herbicidal” herein. […] Where herbicidal activity was evident but 80% inhibition was not achieved at the highest rate tested (typically 1000 g/ha), an asterisk (*) is shown in the following tables. Herbicidal activity evident in the form of symptoms of phytotoxicity, in the absence of at least 80% inhibition at any rate, is indicated in the tables by “phyto”. A blank cell in the following tables indicates no herbicidal or phytotoxic response at any rate tested.
The pre-emergence tests were conducted by the following procedure. Topsoil was sieved to pass through a 1.27 cm screen. Fertilizer was added to the topsoil and the mixture was then sterilized by heating. The topsoil mixture was placed in a pot and compacted to a depth of 1.0 to 1.25 cm from the top of the pot. Seeds of each of several monocotyledonous and dicotyledonous annual plant species were placed on top of the soil. Additional soil was subsequently placed over the seeds to level-fill the pot. A known amount of each test compound dissolved or suspended in an appropriate organic solvent was diluted with a 50:50 mix of acetone and water and applied to the surface of the soil. After treatment the plants were placed in a greenhouse with a 30/21° C. day/night temperature regime where they received 0.64 cm of overhead irrigation. All subsequent watering consisted of a light overhead mist and/or subirrigation as needed for germination and growth.
Pre-emergence herbicidal activity of the compound of Example 5, a racemic mixture of R- and S-enantiomers of N,N′-(1,2-propanediylbis)-3-(trifluoromethyl) benzamide, was compared with that of the individual R- and S-enantiomers, the compounds of Examples 5a and 5b respectively. The procedure was exactly as described above. Rates tested were 1000, 650, 300, 200, 100, 65, 30 and 10 g/ha.
In a greenhouse pre-emergence test conducted according to the procedure described hereinabove, R—N,N′-(1,2-propanediylbis)-3-(trifluoromethyl)benzamide (the compound of Example 5a) was applied at 200 g/ha and acetochlor was applied at 100 g/ha, both individually and in combination.
In the same greenhouse pre-emergence test, R-2-fluoro-3-trifluoromethyl-N-[1-methyl-2-(3-trifluoromethyl)phenylcarbonylamino]ethylbenzamide (the compound of Example 13) was applied at 100 g/ha and acetochlor was applied at 100 g/ha, both individually and in combination.

dicotyledonous species = assay: Greenhouse post-emergence test in combination with glyphosate, dicotyledonous species; format: in vivo
Description: (§2) A pre-prepared topsoil mixture (described above) was placed in a pot and compacted to a depth of 1.0 to 1.25 cm from the top of the pot. Seeds of each of several monocotyledonous and dicotyledonous annual plant species were placed on top of the soil The seeds were covered with a mixture of 50% topsoil and 50% Rediearth™ in sufficient quantity to level-fill the pots. The pots were then placed on a greenhouse bench and subirrigated as needed until plants growing from the seeds had emerged and reached a suitable growth stage for post-emergence treatment, typically 9 to 14 days after planting.
(§3) A known amount of each test compound dissolved or suspended in an appropriate organic solvent was diluted with a 50:50 mix of acetone and water and applied to the plants by spraying with a standard spray nozzle in a spray volume of 3,100 l/ha at a spray pressure of […] (30 psig). Control plants were not sprayed.
(§4) After treatment the plants were placed in a greenhouse with a 30/21° C. day/night temperature regime and were subsequently watered as needed for growth. Approximately 14 days after treatment, the plants were observed and herbicidal efficacy recorded as percent inhibition by comparison with control plants.
(§5) In a greenhouse post-emergence test conducted according to the procedure described hereinabove, R-2-fluoro-3-trifluoromethyl-N-[1-methyl-2-(3-trifluoromethyl)phenylcarbonylamino]ethylbenzamide (the compound of Example 13) was applied at 0, 64, 125 and 250 g/ha in combination with glyphosate isopropylammonium salt at 1000 g a.e./ha. The glyphosate herbicide alone gave 72% control of dicotyledonous species and 84% control of monocotyledonous species. […] At 250 g/ha, addition of the compound of Example 13 gave 93% control of dicotyledonous species, but reduced control of monocotyledonous species to 73%.

monocotyledonous species = assay: Greenhouse post-emergence test in combination with glyphosate, monocotyledonous species; format: in vivo
Description: as §2, §3, §4, §5

[2] = lowest tested rate giving 80% or greater inhibition, approx. 14 days after planting and treating
[3] = Example 13 at 64 g/ha in combination with glyphosate isopropylammonium salt 1000 g a.e./ha
[4] = Example 13 at 125 g/ha in combination with glyphosate isopropylammonium salt 1000 g a.e./ha
[5] = Example 13 at 250 g/ha in combination with glyphosate isopropylammonium salt 1000 g a.e./ha

## C[C@H](CNC(=O)c1cccc(C(F)(F)F)c1)NC(=O)c1cccc(C(F)(F)F)c1F [Example 13, R-2-fluoro-3-trifluoromethyl-N-[1-methyl-2-(3-trifluoromethyl)phenylcarbonylamino]ethylbenzamide]
ABUTH; applied alone at 100 g/ha
  Percent control by pre-emergence application, ABUTH: 2%
ABUTH; [2]
  Pre-emergence activity (GR80) on ABUTH: 250 g/ha
SOLNI; applied alone at 100 g/ha
  Percent control by pre-emergence application, SOLNI: 45%
SOLNI; [2]
  Pre-emergence activity (GR80) on SOLNI: 125 g/ha
AMARE; applied alone at 100 g/ha
  Percent control by pre-emergence application, AMARE: 86%
AMARE; [2]
  Pre-emergence activity (GR80) on AMARE: 64 g/ha
DATST; applied alone at 100 g/ha
  Percent control by pre-emergence application, DATST: 12%
DATST; [2]
  Pre-emergence activity (GR80) on DATST: 125 g/ha
CHEAL; applied alone at 100 g/ha
  Percent control by pre-emergence application, CHEAL: 95%
CHEAL; [2]
  Pre-emergence activity (GR80) on CHEAL: 64 g/ha
CONAR; applied alone at 100 g/ha
  Percent control by pre-emergence application, CONAR: 38%
CONAR; [2]
  Pre-emergence activity (GR80) on CONAR: 750 g/ha
POROL; applied alone at 100 g/ha
  Percent control by pre-emergence application, POROL: 100%
POROL; [2]
  Pre-emergence activity (GR80) on PORAL: 64 g/ha
CIRAR; applied alone at 100 g/ha
  Percent control by pre-emergence application, CIRAR: 25%
CIRAR; [2]
  Pre-emergence activity (GR80) on CIRAR: 64 g/ha
ECHCG
  Pre-emergence activity (GR80) on ECHCG: 500 g/ha
PANMI; applied alone at 100 g/ha
  Percent control by pre-emergence application, PANMI: 5%
PANMI; [2]
  Pre-emergence activity (GR80) on PANMI: 500 g/ha
SORHA; applied alone at 100 g/ha
  Percent control by pre-emergence application, SORHA: 7%
SORHA; [2]
  Pre-emergence activity (GR80) on SORHA: 500 g/ha
SETFA; applied alone at 100 g/ha
  Percent control by pre-emergence application, SETFA: 25%
SETFA; [2]
  Pre-emergence activity (GR80) on SETFA: 125 g/ha
PANDI; applied alone at 100 g/ha
  Percent control by pre-emergence application, PANDI: 40%
PANDI; [2]
  Pre-emergence activity (GR80) on PANDI: 250 g/ha
SORVU
  Pre-emergence activity (GR80) on SORVU: 1000 g/ha
BRAPP; applied alone at 100 g/ha
  Percent control by pre-emergence application, BRAPP: 4%
BRAPP; [2]
  Pre-emergence activity (GR80) on BRAPP: 500 g/ha
DIGSA; applied alone at 100 g/ha
  Percent control by pre-emergence application, DIGSA: 43%
DIGSA; [2]
  Pre-emergence activity (GR80) on DIGSA: 125 g/ha
[1]; Example 13 100 g/ha + acetochlor 100 g/ha, at least on ABUTH, DATST, SOLNI and PANMI
  herbicidal activity of the combination compared with expectation: greater than expected herbicidal activity
[1]; Example 13 100 g/ha in combination with acetochlor 100 g/ha
  number of the 14 species showing >85% control: 10
[1]; Example 13 alone at 100 g/ha
  number of the 14 species showing >85% control: 3
Dicotyledonous species; [3]
  control of dicotyledonous species: 85%
Dicotyledonous species; [4]
  control of dicotyledonous species: 95%
Dicotyledonous species; [5]
  control of dicotyledonous species: 93%
Monocotyledonous species; [3]
  control of monocotyledonous species: 89%
Monocotyledonous species; [4]
  control of monocotyledonous species: 89%
Monocotyledonous species; [5]
  control of monocotyledonous species: 73%
